Data: US20080227803A1, “Indolomorphinan Derivative Having Carboxy in 6'-Position” (SHIOONOGI & CO., LTD., a legal entity of Japan, priority 2004, published 2008)

How the values were obtained:
[1] = system: retching and emesis induced by morphine; assay: Effect on the retching and emesis induced by morphine in ferrets; type: in vivo; settings: for Duration / Occurrence times / Latent period: mean ± SE; for Latent period: no symptom = 30 min; for Number of individuals with the symptom/Number of cases: morphine 0.6 mg/kg s.c., 30 min observation
Experimental: About 30 minutes after feeding, ferrets were placed into observation cages and administered with the test compound. The test compound was dissolved into 15% Solutol (Registered trademark) HS15 containing 5% of N,N-dimethylacetamide and 5% of N-methyl-glucamine, and administered at 5 mg/kg. Thirty minutes after administration of the test compound solution, morphine at 0.6 mg/kg was subcutaneously administered in a solution volume of 1 mL/kg, and the retching and emesis symptoms were visually observed for 30 minutes after administration of morphine.
The frequency, latency (the period from the administration of morphine to the initial occurrence of emetic symptom) and duration (the period from the initial emesis to the final emesis) of retching (rhythmical contraction of abdomen), emesis (emetic behavior to discharge the vomit or similar behavior) and both the symptoms were tabulated.
Meanwhile, the latency of a case showing no emesis was assumed to be 30 minutes that were the longest time of observation, and a duration of less than 1 minute after the occurrence of emesis was expressed as 1 minute for the sake of convenience.

opioid δ receptor = biological target: T1, opioid δ receptor (Rattus norvegicus, UniProt P33533); assay: Opioid receptor binding assay, [3H]-DADLE, rat cerebrum membrane fraction
T1 construct: Four hundred and eighty microliters of the rat cerebrum membrane fraction; from tissue; host or cells: rat (Slc:SD) cerebrum, crude membrane fraction
T1 sequence (P33533 whole entry): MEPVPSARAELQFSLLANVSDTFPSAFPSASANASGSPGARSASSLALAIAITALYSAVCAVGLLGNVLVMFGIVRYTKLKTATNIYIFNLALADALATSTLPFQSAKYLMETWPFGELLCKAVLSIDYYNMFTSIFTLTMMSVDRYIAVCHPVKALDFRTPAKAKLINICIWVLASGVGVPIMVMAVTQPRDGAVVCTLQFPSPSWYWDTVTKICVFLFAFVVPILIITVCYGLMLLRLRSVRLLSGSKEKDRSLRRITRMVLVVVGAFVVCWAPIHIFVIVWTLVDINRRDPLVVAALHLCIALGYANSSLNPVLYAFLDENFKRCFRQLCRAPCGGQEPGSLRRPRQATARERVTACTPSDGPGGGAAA

[2] = Retching + emesis, I-1 0.05 mg/kg
[3] = Retching + emesis, I-1 0.5 mg/kg

O=C(O)c1ccc2c3c([nH]c2c1)[C@@H]1Oc2c(O)ccc4c2[C@@]12CCN(CC1CC1)[C@H](C4)[C@]2(O)C3 [Compound I-1, 17-cyclopropylmethyl-6,7-didehydro-4,5α-epoxy-3,14β-dihydroxy-6′-carboxy-6,7-2′,3′-indolomorphinan]
Duration ([1]; Emesis, I-1 0.05 mg/kg): 0 ± 0 min
Occurrence times ([1]; Emesis, I-1 0.05 mg/kg): 0 ± 0
Latent period ([1]; Emesis, I-1 0.05 mg/kg): 30 ± 0 min
Number of individuals with the symptom/Number of cases ([1]; Emesis, I-1 0.05 mg/kg): 0/6
Duration ([1]; Emesis, I-1 0.5 mg/kg): 0 ± 0 min
Occurrence times ([1]; Emesis, I-1 0.5 mg/kg): 0 ± 0
Latent period ([1]; Emesis, I-1 0.5 mg/kg): 30 ± 0 min
Number of individuals with the symptom/Number of cases ([1]; Emesis, I-1 0.5 mg/kg): 0/6
Duration ([1]; Emesis, I-1 5 mg/kg): 0 ± 0 min
Occurrence times ([1]; Emesis, I-1 5 mg/kg): 0 ± 0
Latent period ([1]; Emesis, I-1 5 mg/kg): 30 ± 0 min
Number of individuals with the symptom/Number of cases ([1]; Emesis, I-1 5 mg/kg): 0/6
Duration [1, 2]: 0 ± 0 min
Occurrence times [1, 2]: 0 ± 0
Latent period [1, 2]: 30 ± 0 min
Number of individuals with the symptom/Number of cases [1, 2]: 0/6
Duration [1, 3]: 0 ± 0 min
Occurrence times [1, 3]: 0 ± 0
Latent period [1, 3]: 30 ± 0 min
Number of individuals with the symptom/Number of cases [1, 3]: 0/6
Duration ([1]; Retching + emesis, I-1 5 mg/kg): 0 ± 0 min
Occurrence times ([1]; Retching + emesis, I-1 5 mg/kg): 0 ± 0
Latent period ([1]; Retching + emesis, I-1 5 mg/kg): 30 ± 0 min
Number of individuals with the symptom/Number of cases ([1]; Retching + emesis, I-1 5 mg/kg): 0/6
Duration ([1]; Retching, I-1 0.05 mg/kg): 0 ± 0 min
Occurrence times ([1]; Retching, I-1 0.05 mg/kg): 0 ± 0
Latent period ([1]; Retching, I-1 0.05 mg/kg): 30 ± 0 min
Number of individuals with the symptom/Number of cases ([1]; Retching, I-1 0.05 mg/kg): 0/6
Duration ([1]; Retching, I-1 0.5 mg/kg): 0 ± 0 min
Occurrence times ([1]; Retching, I-1 0.5 mg/kg): 0 ± 0
Latent period ([1]; Retching, I-1 0.5 mg/kg): 30 ± 0 min
Number of individuals with the symptom/Number of cases ([1]; Retching, I-1 0.5 mg/kg): 0/6
Duration ([1]; Retching, I-1 5 mg/kg): 0 ± 0 min
Occurrence times ([1]; Retching, I-1 5 mg/kg): 0 ± 0
Latent period ([1]; Retching, I-1 5 mg/kg): 30 ± 0 min
Number of individuals with the symptom/Number of cases ([1]; Retching, I-1 5 mg/kg): 0/6
Ki (opioid δ receptor): 0.62 nM

CC(OC(=O)c1ccc2c3c([nH]c2c1)[C@@H]1Oc2c(O)ccc4c2[C@@]12CCN(CC1CC1)[C@H](C4)[C@]2(O)C3)OC(=O)C(C)C (stereo partly drawn) [Compound I-9]
Ki (opioid δ receptor): 1.25 nM

CC(C)(C)C(=O)OCOC(=O)c1ccc2c3c([nH]c2c1)[C@@H]1Oc2c(O)ccc4c2[C@@]12CCN(CC1CC1)[C@H](C4)[C@]2(O)C3 [Compound I-2]
Ki (opioid δ receptor): 1.7 nM

Cc1oc(=O)oc1COC(=O)c1ccc2c3c([nH]c2c1)[C@@H]1Oc2c(O)ccc4c2[C@@]12CCN(CC1CC1)[C@H](C4)[C@]2(O)C3 [Compound I-3]
Ki (opioid δ receptor): 1.06 nM

CCCC(=O)OCOC(=O)c1ccc2c3c([nH]c2c1)[C@@H]1Oc2c(O)ccc4c2[C@@]12CCN(CC1CC1)[C@H](C4)[C@]2(O)C3 [Compound I-4]
Ki (opioid δ receptor): 1.14 nM

CC(=O)OC(C)OC(=O)c1ccc2c3c([nH]c2c1)[C@@H]1Oc2c(O)ccc4c2[C@@]12CCN(CC1CC1)[C@H](C4)[C@]2(O)C3 (stereo partly drawn) [Compound I-8]
Ki (opioid δ receptor): 1.38 nM
